This note sets out measurements from patent publication US8580747B2, “Cyclic natriuretic peptide constructs” (Palatin Technologies, Inc., priority 2006, dated 2013).

Where two headings read alike, the source gives them in different places. Bridge positions count the residues as written; N and C are the ends. Square brackets hold non-standard residues; d marks the D form. Peptide text beside a SMILES is read from it. * marks the point of attachment. Piperazin2one(3S-Bu,6R-CO) = CCCC[C@@H]1NC[C@H](C(=O)*)NC1=O; X2 = N=C(N)NCCC[C@@H]1C(=O)N[C@@H](C(N)=O)CN1*; X1 = N=C(N)NCCC[C@H]1C(=O)N[C@@H](C(N)=O)CN1*; dNle = CCCC[C@@H](N)C(=O)O; Heptanoyl = CCCCCCC(=O)*; Nle = CCCC[C@H](N)C(=O)O; Orn = NCCC[C@H](N)C(=O)O

Series [1] concerns the target T1, NEP (neutral endopeptidase) (Homo sapiens, UniProt P08473).
T1 construct: purchased R&D Systems, Minneapolis, Minn; 1182-ZN
The series can be described thus: hNEP resistance assay (digestion by neutral endopeptidase). Particulars: pH 7.4. It is filed as in vitro ADME. The method, then: NEP resistance of various constructs of the invention was evaluated using the following experimental procedure. All constructs were diluted in 0.1 M Tris-HCL buffer (pH 7.4) to 100 μM. 40 μL of diluted constructs were added to each tube and all tubes were kept on ice. 40 μL of diluted NEP, either human recombinant NEP (R&D Systems, Minneapolis, Minn., catalogue #1182-ZN) at 8 ng/μL or mouse NEP (R&D Systems, catalog #1126-ZN) at 2.5 ng/μL, was added to each tube. The tubes were mixed gently and spun. […] At the end of the incubation time, the reaction was stopped by adding 5 μL of 10% TFA. […] The extent to which NEP was active against the constructs was then analyzed by HPLC and/or LC/MS. Data analysis included determining the percent of remaining starting material, i.e., undigested peptide construct, and the percent and sequence of each proteolytic fragment.

The conditions of series [2]: rat, in vivo, iv.
The conditions of series [3]: rat, in vivo, sc.
The mark [4] stands for this setting: human, isolated enzyme neprilysin.
Where [5] appears, read: human recombinant NEP (neutral endopeptidase), incubation with human recombinant NEP at 37° C., 1 h, read-out: hNEP % of Starting Material 1 h.
Setting [6] is: human recombinant NEP (neutral endopeptidase), incubation with human recombinant NEP at 37° C., 2 h, read-out: hNEP % of Starting Material 2 h.

T1 sequence (P08473 52-750 limits assumed): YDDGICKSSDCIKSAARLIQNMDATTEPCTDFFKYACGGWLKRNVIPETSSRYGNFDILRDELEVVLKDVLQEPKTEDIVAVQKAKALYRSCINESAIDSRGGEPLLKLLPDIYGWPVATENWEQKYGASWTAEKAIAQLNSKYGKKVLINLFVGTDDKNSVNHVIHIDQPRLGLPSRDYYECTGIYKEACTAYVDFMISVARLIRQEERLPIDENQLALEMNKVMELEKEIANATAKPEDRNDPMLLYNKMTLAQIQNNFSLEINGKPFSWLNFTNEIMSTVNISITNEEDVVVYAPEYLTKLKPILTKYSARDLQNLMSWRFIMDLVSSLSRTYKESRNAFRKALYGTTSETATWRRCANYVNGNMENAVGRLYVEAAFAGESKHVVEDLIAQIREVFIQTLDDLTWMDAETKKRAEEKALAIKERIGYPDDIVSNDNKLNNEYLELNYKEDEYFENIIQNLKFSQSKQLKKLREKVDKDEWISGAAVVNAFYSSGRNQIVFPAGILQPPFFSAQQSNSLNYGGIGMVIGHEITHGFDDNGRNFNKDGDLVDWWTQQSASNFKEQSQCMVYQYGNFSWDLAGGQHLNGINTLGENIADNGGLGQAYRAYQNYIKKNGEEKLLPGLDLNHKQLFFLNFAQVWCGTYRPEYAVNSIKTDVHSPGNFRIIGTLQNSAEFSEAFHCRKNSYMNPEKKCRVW

Broadly, the clearance is a measure of how efficiently the substance is removed, as volume per time. With `CCCC[C@@H]1NC[C@H](C(=O)N[C@H]2CSSC[C@@H](C(=O)N[C@@H](Cc3ccc(O)cc3)C(=O)N3C[C@H](C(N)=O)NC(=O)[C@H]3CCCNC(=N)N)NC(=O)[C@H](CO)NC(=O)[C@H]([C@@H](C)CC)NC(=O)[C@@H](CCCNC(=N)N)NC(=O)[C@H](CC(=O)O)NC(=O)[C@H](CCCC)NC(=O)[C@@H](CCCNC(=N)N)NC(=O)CNC(=O)CNC(=O)[C@H](Cc3ccccc3)NC(=O)[C@H](Cc3c[nH]cn3)NC2=O)NC1=O` [1-118] ({Piperazin2one(3S-Bu,6R-CO)}-CHFGG[dR][Nle]D[dR]ISCY-X2; disulfide 1-12), in series [1] (setting [4]), the remaining at 1 h, 50 µM turned out to be 96% and the remaining at 2 h, 50 µM was found to be 92%. In series [2], the clearance was determined as 10 mL/min/kg.

In general, AUC refers to the area under the concentration-time curve, a measure of exposure. Higher therefore signals more exposure. The term Vd denotes the apparent volume that relates the amount in the body to the concentration in plasma or blood. A higher Vd goes with extensive tissue distribution. One may read the half-life as the time needed for the level to fall by half in the phase considered. Low readings indicate rapid decline, high ones slow decline. With `CCCC[C@@H]1NC[C@H](C(=O)N[C@H]2CSSC[C@@H](C(=O)N[C@@H](Cc3ccc(O)cc3)C(=O)N3C[C@H](C(N)=O)NC(=O)[C@@H]3CCCNC(=N)N)NC(=O)[C@H](CO)NC(=O)[C@H]([C@@H](C)CC)NC(=O)[C@H](C)NC(=O)[C@H](CC(=O)O)NC(=O)[C@H](CCCC)NC(=O)[C@H](C)NC(=O)CNC(=O)CNC(=O)[C@H](Cc3ccccc3)NC(=O)[C@H](Cc3c[nH]cn3)NC2=O)NC1=O` [1-100] ({Piperazin2one(3S-Bu,6R-CO)}-CHFGGA[Nle]DAISCY-X1; disulfide 1-12), in series [1] (setting [5]), the remaining at 1 h, 50 µM amounted to 6%. For the same molecule, the remaining at 2 h, 50 µM in series [1] (setting [6]) stood at 0%. In series [2], this molecule registered a clearance of 456 mL/min/kg. For the same molecule, in series [2] (2 mg/kg), the AUC was 0.042 µM·h, the Vd was 0.8 L/kg, the clearance is 456 mL/min/kg and the half-life is 6 min.

Turning to `CCCCCCC(=O)N[C@H]1CSSC[C@@H](C(=O)N[C@@H](Cc2ccc(O)cc2)C(=O)N2C[C@H](C(N)=O)NC(=O)[C@@H]2CCCNC(=N)N)NC(=O)[C@H](CO)NC(=O)[C@H]([C@@H](C)CC)NC(=O)[C@H](CCCNC(=N)N)NC(=O)[C@H](CC(=O)O)NC(=O)[C@@H](CCCC)NC(=O)[C@H](CCCNC(=N)N)NC(=O)CNC(=O)CNC(=O)[C@H](Cc2ccccc2)NC(=O)[C@H](Cc2c[nH]cn2)NC1=O` [1-131] (Heptanoyl-CHFGGR[dNle]DRISCY-X1; disulfide 1-12), in series [1] (setting [4]), the remaining at 1 h, 50 µM worked out at 87% and the remaining at 2 h, 50 µM stood at 70%. This molecule also yielded a clearance in series [2] of 21 mL/min/kg.

For the molecule `CCCC[C@@H]1NC[C@H](C(=O)N[C@H]2CSSC[C@@H](C(=O)N[C@@H](Cc3ccc(O)cc3)C(=O)N3C[C@H](C(N)=O)NC(=O)[C@@H]3CCCNC(=N)N)NC(=O)[C@H](CO)NC(=O)[C@H]([C@@H](C)CC)NC(=O)[C@H](CCCNC(=N)N)NC(=O)[C@H](CC(=O)O)NC(=O)[C@H](CCCC)NC(=O)[C@H](CCCN)NC(=O)CNC(=O)CNC(=O)[C@H](Cc3ccccc3)NC(=O)[C@H](Cc3c[nH]cn3)NC2=O)NC1=O` [1-54] ({Piperazin2one(3S-Bu,6R-CO)}-CHFGG[Orn][Nle]DRISCY-X1; disulfide 1-12), the remaining at 1 h, 50 µM in series [1] (setting [5]) was found to be 85%. For the same molecule, the remaining at 2 h, 50 µM in series [1] (setting [6]) turned out to be 82%. Moreover, the clearance in series [2] was found to be 66 mL/min/kg. In series [2] (2 mg/kg), the exposure (AUC) was found to be 0.277 µM·h, the Vd is 1 L/kg, the clearance is 66 mL/min/kg and the half-life is 12 min.

In the case of `CCCC[C@@H]1NC[C@H](C(=O)N[C@H]2CSSC[C@@H](C(=O)N[C@@H](Cc3ccc(O)cc3)C(=O)N3C[C@H](C(N)=O)NC(=O)[C@@H]3CCCNC(=N)N)NC(=O)[C@H](CO)NC(=O)[C@H]([C@@H](C)CC)NC(=O)[C@H](CCCNC(=N)N)NC(=O)[C@H](CC(=O)O)NC(=O)[C@@H](CCCC)NC(=O)[C@H](CCCNC(=N)N)NC(=O)CNC(=O)CNC(=O)[C@H](Cc3ccccc3)NC(=O)[C@H](Cc3c[nH]cn3)NC2=O)NC1=O` [1-43] ({Piperazin2one(3S-Bu,6R-CO)}-CHFGGR[dNle]DRISCY-X1; disulfide 1-12), in series [1] (setting [4]), the remaining at 1 h, 50 µM was 97% and the remaining at 2 h, 50 µM was determined as 92%. Further, the clearance in series [2] worked out at 14 mL/min/kg. In series [2] (2 mg/kg), this molecule gave an AUC of 1.25 µM·h, a Vd of 0.6 L/kg, a clearance of 14 mL/min/kg and a half-life of 42 min.

In series [1] (setting [4]), `CCCC[C@@H]1NC[C@H](C(=O)N[C@H]2CSSC[C@@H](C(=O)N[C@@H](Cc3ccc(O)cc3)C(=O)N3C[C@H](C(N)=O)NC(=O)[C@@H]3CCCNC(=N)N)NC(=O)[C@H](CO)NC(=O)[C@H]([C@@H](C)CC)NC(=O)[C@H](CCCNC(=N)N)NC(=O)[C@@H](CC(=O)O)NC(=O)[C@H](CCCC)NC(=O)[C@H](CCCNC(=N)N)NC(=O)CNC(=O)CNC(=O)[C@H](Cc3ccccc3)NC(=O)[C@H](Cc3c[nH]cn3)NC2=O)NC1=O` [1-44] ({Piperazin2one(3S-Bu,6R-CO)}-CHFGGR[Nle][dD]RISCY-X1; disulfide 1-12) had a remaining at 1 h, 50 µM of 93% and a remaining at 2 h, 50 µM of 86%. In series [2], this molecule came in with a clearance of 15 mL/min/kg. Moreover, in series [2] (2 mg/kg), the AUC stood at 1.54 µM·h, the Vd was 0.4 L/kg, the clearance was 15 mL/min/kg and the half-life was 30 min.

Turning to `CCCCCCC(=O)N[C@H]1CSSC[C@@H](C(=O)N[C@@H](Cc2ccc(O)cc2)C(=O)N2C[C@H](C(N)=O)NC(=O)[C@@H]2CCCNC(=N)N)NC(=O)[C@H](CO)NC(=O)[C@H]([C@@H](C)CC)NC(=O)[C@H](CCCNC(=N)N)NC(=O)[C@H](CC(=O)O)NC(=O)[C@H](CCCC)NC(=O)[C@H](CCCNC(=N)N)NC(=O)CNC(=O)[C@@H](C)NC(=O)[C@H](Cc2ccccc2)NC(=O)[C@H](Cc2c[nH]cn2)NC1=O` [1-130] (Heptanoyl-CHF[dA]GR[Nle]DRISCY-X1; disulfide 1-12), the remaining at 1 h, 50 µM in series [1] (isolated enzyme neprilysin, incubation with human recombinant NEP at 37° C., 1 h, read-out: hNEP % of Starting Material 1 h) worked out at 75%. Further, the remaining at 2 h, 50 µM in series [1] (isolated enzyme neprilysin, incubation with human recombinant NEP at 37° C., 2 h, read-out: hNEP % of Starting Material 2 h) is 56%. Besides, the clearance in series [2] turned out to be 92 mL/min/kg.

As a reminder, the Cmax is the peak of the concentration-time curve. The term Tmax denotes the time from dosing to the highest level. Take `CCCC[C@@H]1NC[C@H](C(=O)N[C@H]2CSSC[C@@H](C(=O)N[C@@H](Cc3ccc(O)cc3)C(=O)N3C[C@H](C(N)=O)NC(=O)[C@@H]3CCCNC(=N)N)NC(=O)[C@H](CO)NC(=O)[C@H]([C@@H](C)CC)NC(=O)[C@H](CCCNC(=N)N)NC(=O)[C@H](CC(=O)O)NC(=O)[C@H](CCCC)NC(=O)[C@H](CCCNC(=N)N)NC(=O)CNC(=O)CNC(=O)[C@H](Cc3ccccc3)NC(=O)[C@H](Cc3c[nH]cn3)NC2=O)NC1=O` [1-18] ({Piperazin2one(3S-Bu,6R-CO)}-CHFGGR[Nle]DRISCY-X1; disulfide 1-12): in series [1] (setting [4]), the remaining at 1 h, 50 µM was found to be 91% and the remaining at 2 h, 50 µM was 82%. Further, the clearance in series [2] turned out to be 55 mL/min/kg. In series [2] (0.3 mg/kg), the AUC turned out to be 0.061 µM·h, the Vd was found to be 0.4 L/kg, the clearance is 43 mL/min/kg and the half-life is 12 min. In series [2] (2 mg/kg), this molecule had an AUC of 0.263 µM·h, a distribution volume (Vd) of 0.7 L/kg, a clearance of 72 mL/min/kg and a half-life of 12 min. Besides, in series [3] (1 mg/kg), the AUC came out at 0.04 µM·h, the peak level (Cmax) was 85 nM, the Tmax was 6 min and the half-life is 12 min. In series [3] (5 mg/kg), the AUC is 0.255 µM·h, the Cmax turned out to be 131 nM, the Tmax turned out to be 12 min and the half-life is 96 min.

In series [1] (setting [4]), `CCCCCCC(=O)N[C@H]1CSSC[C@@H](C(=O)N[C@@H](Cc2ccc(O)cc2)C(=O)N2C[C@H](C(N)=O)NC(=O)[C@@H]2CCCNC(=N)N)NC(=O)[C@H](CO)NC(=O)[C@H]([C@@H](C)CC)NC(=O)[C@H](CCCNC(=N)N)NC(=O)[C@H](CC(=O)O)NC(=O)[C@H](CCCC)NC(=O)[C@H](CCCNC(=N)N)NC(=O)CNC(=O)CNC(=O)[C@H](Cc2ccccc2)NC(=O)[C@H](Cc2c[nH]cn2)NC1=O` [1-63] (Heptanoyl-CHFGGR[Nle]DRISCY-X1; disulfide 1-12) came in with a remaining at 1 h, 50 µM of 67% and a remaining at 2 h, 50 µM of 44%. Besides, in series [2], the clearance came to 203 mL/min/kg. In series [2] (0.3 mg/kg), this molecule had an AUC of 0.033 µM·h, a Vd of 5.8 L/kg, a clearance of 546 mL/min/kg and a half-life of 18 min. Further, in series [2] (2 mg/kg), the AUC was determined as 0.067 µM·h, the Vd was 4.6 L/kg, the clearance was determined as 290 mL/min/kg and the half-life is 18 min. Besides, in series [3] (1 mg/kg), the AUC came out at 0.007 µM·h, the Cmax is 26 nM, the Tmax came to 6 min and the half-life is 12 min.
